Source: ChEMBL document CHEMBL1129930, “Analogues of methotrexate in rheumatoid arthritis. 2. Effects of 5-deazaaminopterin, 5,10-dideazaaminopterin, and analogues on type II collagen-induced arthritis in mice” (J Med Chem, 1997)

Tests used:
[1] = Concentration required to inhibit the growth of chang liver cells.; type: functional; settings: Homo sapiens
L1210 = experiment: Concentration required to inhibit the growth of L1210 cells.; type: functional, cell-based; settings: Mus musculus
Mus musculus [2] = experiment: Incidence of disease (mouse type II collagen) was scored as the percentage of animals within each experimental group that exhibited joint or limb inflammation on day 37 at intraperitoneal dose of 1.5 mg/kg; type: functional
Mus musculus [3] = experiment: Incidence of disease (mouse type II collagen) was scored as the percentage of animals within each experimental group that exhibited joint or limb inflammation on day 37 at intraperitoneal dose of 3 mg/kg; type: functional
Mus musculus [4] = experiment: Incidence of disease (mouse type II collagen) was scored as the percentage of animals within each experimental group that exhibited joint or limb inflammation on day 23 at intraperitoneal dose of 1.5 mg/kg; type: functional
Mus musculus [5] = experiment: Incidence of disease (mouse type II collagen) was scored as the percentage of animals within each experimental group that exhibited joint or limb inflammation on day 23 at intraperitoneal dose of 3 mg/kg; type: functional
Mus musculus [6] = experiment: Incidence of disease (mouse type II collagen) was scored as the percentage of animals within each experimental group that exhibited joint or limb inflammation on day 23 at intraperitoneal dose of 6 mg/kg; type: functional
Mus musculus [7] = experiment: Incidence of disease (mouse type II collagen) was scored as the percentage of animals within each experimental group that exhibited joint or limb inflammation on day 44 at intraperitoneal dose of 1.5 mg/kg; type: functional
Mus musculus [8] = experiment: Incidence of disease (mouse type II collagen) was scored as the percentage of animals within each experimental group that exhibited joint or limb inflammation on day 44 at intraperitoneal dose of 3 mg/kg; type: functional
Mus musculus [9] = experiment: Incidence of disease (mouse type II collagen) was scored as the percentage of animals within each experimental group that exhibited joint or limb inflammation on day 44 at intraperitoneal dose of 6 mg/kg; type: functional
Mus musculus [10] = experiment: Incidence of disease (mouse type II collagen) was scored as the percentage of animals within each experimental group that exhibited joint or limb inflammation on day 30 at intraperitoneal dose of 3 mg/kg; type: functional
Mus musculus [11] = experiment: Incidence of disease (mouse type II collagen) was scored as the percentage of animals within each experimental group that exhibited joint or limb inflammation on day 30 at intraperitoneal dose of 6 mg/kg; type: functional
Mus musculus [12] = experiment: Incidence of disease (mouse type II collagen) was scored as the percentage of animals within each experimental group that exhibited joint or limb inflammation on day 37 at intraperitoneal dose of 6 mg/kg; type: functional
Mus musculus [13] = experiment: Incidence of disease (mouse type II collagen) was scored as the percentage of animals within each experimental group that exhibited joint or limb inflammation on day 30 at intraperitoneal dose of 1.5 mg/kg; type: functional
Mus musculus [14] = experiment: Tested for antiinflammatory activity on mouse type II collagen arthritis as Paw swelling of all animals in each group on day 44 at intraperitoneal dose of 1.5 mg/kg; type: functional
Mus musculus [15] = experiment: Tested for antiinflammatory activity on mouse type II collagen arthritis as Paw swelling of all animals in each group on day 30 at intraperitoneal dose of 3 mg/kg; type: functional
Mus musculus [16] = experiment: Tested for antiinflammatory activity on mouse type II collagen arthritis as Paw swelling of all animals in each group on day 30 at intraperitoneal dose of 6 mg/kg; type: functional
Mus musculus [17] = experiment: Tested for antiinflammatory activity on mouse type II collagen arthritis as Paw swelling of all animals in each group on day 23 at intraperitoneal dose of 1.5 mg/kg; type: functional
Mus musculus [18] = experiment: Tested for antiinflammatory activity on mouse type II collagen arthritis as Paw swelling of all animals in each group on day 23 at intraperitoneal dose of 3 mg/kg; type: functional
Mus musculus [19] = experiment: Tested for antiinflammatory activity on mouse type II collagen arthritis as Paw swelling of all animals in each group on day 23 at intraperitoneal dose of 6 mg/kg; type: functional
Mus musculus [20] = experiment: Tested for antiinflammatory activity on mouse type II collagen arthritis as Paw swelling of all animals in each group on day 44 at intraperitoneal dose of 3 mg/kg; type: functional
Mus musculus [21] = experiment: Tested for antiinflammatory activity on mouse type II collagen arthritis as Paw swelling of all animals in each group on day 37 at intraperitoneal dose of 6 mg/kg; type: functional
Mus musculus [22] = experiment: Tested for antiinflammatory activity on mouse type II collagen arthritis as Paw swelling of all animals in each group on day 30 at intraperitoneal dose of 1.5 mg/kg; type: functional
Mus musculus [23] = experiment: Tested for antiinflammatory activity on mouse type II collagen arthritis as Paw swelling of all animals in each group on day 37 at intraperitoneal dose of 1.5 mg/kg; type: functional
Mus musculus [24] = experiment: Tested for antiinflammatory activity on mouse type II collagen arthritis as Paw swelling of all animals in each group on day 44 at intraperitoneal dose of 6 mg/kg; type: functional
Mus musculus [25] = experiment: Tested for antiinflammatory activity on mouse type II collagen arthritis as Paw swelling of all animals in each group on day 37 at intraperitoneal dose of 3 mg/kg; type: functional

Row | Structure (SMILES) | Animals (Mus musculus [2]) | Animals (Mus musculus [3]) | Animals (Mus musculus [4]) | Animals (Mus musculus [5]) | Animals (Mus musculus [6]) | Animals (Mus musculus [7]) | Animals (Mus musculus [8]) | Animals (Mus musculus [9]) | Animals (Mus musculus [10]) | Animals (Mus musculus [11]) | Animals (Mus musculus [12]) | Animals (Mus musculus [13]) | Paw swelling (Mus musculus [14]) | Paw swelling (Mus musculus [15]) | Paw swelling (Mus musculus [16]) | Paw swelling (Mus musculus [17]) | Paw swelling (Mus musculus [18]) | Paw swelling (Mus musculus [19]) | Paw swelling (Mus musculus [20]) | Paw swelling (Mus musculus [23]) | also measured
1 | C#CCN(Cc1cnc2nc(N)nc(N)c2c1C)c1ccc(C(=O)NC(CCC(=O)O)C(=O)O)cc1 (stereo not drawn) | 50% | 50% | 0% | 0% | 12% | 62% | 62% | 62% | 25% | 25% | 62% | 25% | 2.37 mm | 2.27 mm | 2.21 mm | 2.16 mm | 2.12 mm | 2.23 mm | 2.38 mm | 2.33 mm | IC50 [1]: 593 nM; IC50 (L1210): 1.6 nM; Paw swelling (Mus musculus [21]): 2.32 mm; Paw swelling (Mus musculus [22]): 2.31 mm; Paw swelling (Mus musculus [24]): 2.46 mm
2 | Cc1c(CN(C)c2ccc(C(=O)NC(CCC(=O)O)C(=O)O)s2)cnc2nc(N)nc(N)c12 (stereo not drawn) | 12% | 0% | 0% | 0% | 0% | 50% | 57% | 38% | 0% | 0% | 12% | 0% | 2.33 mm | 2.16 mm | 2.13 mm | 2.12 mm | 2.13 mm | 2.11 mm | 2.32 mm | 2.21 mm | Paw swelling (Mus musculus [25]): 2.14 mm; Paw swelling (Mus musculus [21]): 2.19 mm
3 | C=CCN(Cc1cnc2nc(N)nc(N)c2c1CC)c1ccc(C(=O)NC(CCC(=O)O)C(=O)O)cc1 (stereo not drawn) | 38% | 57% | 0% | 0% | 0% | 62% | 86% | 88% | 29% | 25% | 50% | 0% | 2.4 mm | 2.27 mm | 2.21 mm | 2.14 mm | 2.16 mm | 2.15 mm | 2.55 mm | 2.26 mm | Paw swelling (Mus musculus [25]): 2.34 mm; Paw swelling (Mus musculus [21]): 2.28 mm; Paw swelling (Mus musculus [22]): 2.18 mm; Paw swelling (Mus musculus [24]): 2.45 mm
4 | CCC(Cc1cnc2nc(N)nc(N)c2c1)c1ccc(C(=O)NC(CCC(=O)O)C(=O)O)cc1 (stereo not drawn) | 88% | 100% | 25% | 25% | 12% | 88% | 100% | 100% | 88% | 100% | 88% | 62% | 2.59 mm | 2.43 mm | 2.57 mm | 2.17 mm | 2.26 mm | 2.2 mm | 2.7 mm | 2.48 mm | IC50 [1]: 12 nM; IC50 (L1210): 75 nM; Paw swelling (Mus musculus [25]): 2.67 mm; Paw swelling (Mus musculus [21]): 2.8 mm; Paw swelling (Mus musculus [22]): 2.31 mm; Paw swelling (Mus musculus [24]): 2.76 mm
5 | Cc1c(CN(C)c2ccc(C(=O)NC(CCC(=O)O)C(=O)O)cc2)cnc2nc(N)nc(N)c12 (stereo not drawn) | 50% | 50% | 0% | 0% |  | 62% | 100% |  | 50% |  |  | 12% | 2.44 mm | 2.26 mm |  |  | 2.1 mm |  | 2.48 mm | 2.42 mm | IC50 [1]: 78 nM; IC50 (L1210): 1.3 nM; Paw swelling (Mus musculus [25]): 2.47 mm; Paw swelling (Mus musculus [22]): 2.26 mm
6 | CCCCc1c(CNc2ccc(C(=O)NC(CCC(=O)O)C(=O)O)cc2)cnc2nc(N)nc(N)c12 (stereo not drawn) | 38% | 12% | 0% | 0% | 0% | 38% | 38% | 50% | 0% | 0% | 50% | 0% | 2.27 mm | 2.15 mm | 2.15 mm | 2.16 mm | 2.16 mm | 2.12 mm | 2.27 mm | 2.23 mm | Paw swelling (Mus musculus [25]): 2.2 mm; Paw swelling (Mus musculus [21]): 2.27 mm; Paw swelling (Mus musculus [22]): 2.17 mm; Paw swelling (Mus musculus [24]): 2.29 mm
7 | Cc1c(CNc2ccc(C(=O)NC(CCC(=O)O)C(=O)O)cc2)cnc2nc(N)nc(N)c12 (stereo not drawn) | 25% | 40% | 0% | 12% | 0% | 75% | 60% | 100% | 0% | 0% | 100% | 0% | 2.55 mm | 2.18 mm | 2.16 mm | 2.13 mm | 2.21 mm | 2.12 mm | 2.53 mm | 2.31 mm | IC50 [1]: 123 nM; IC50 (L1210): 1.8 nM; Paw swelling (Mus musculus [25]): 2.42 mm; Paw swelling (Mus musculus [21]): 2.34 mm; Paw swelling (Mus musculus [24]): 2.59 mm
8 | CCCN(Cc1cnc2nc(N)nc(N)c2c1C)c1ccc(C(=O)NC(CCC(=O)O)C(=O)O)cc1 (stereo not drawn) | 12% | 0% | 0% | 0% | 0% | 25% | 0% | 25% | 0% | 12% | 12% | 0% | 2.22 mm | 2.13 mm | 2.19 mm | 2.15 mm | 2.12 mm | 2.16 mm | 2.16 mm | 2.21 mm | IC50 [1]: 14 nM; IC50 (L1210): 11 nM; Paw swelling (Mus musculus [25]): 2.17 mm; Paw swelling (Mus musculus [21]): 2.2 mm; Paw swelling (Mus musculus [22]): 2.15 mm; Paw swelling (Mus musculus [24]): 2.24 mm
9 | CCc1c(CN(C)c2ccc(C(=O)NC(CCC(=O)O)C(=O)O)s2)cnc2nc(N)nc(N)c12 (stereo not drawn) | 38% | 12% | 25% | 0% | 0% | 50% | 88% | 50% | 0% | 0% | 12% | 12% | 2.37 mm | 2.15 mm | 2.13 mm | 2.24 mm | 2.14 mm | 2.12 mm | 2.45 mm | 2.26 mm | Paw swelling (Mus musculus [25]): 2.2 mm; Paw swelling (Mus musculus [21]): 2.16 mm; Paw swelling (Mus musculus [22]): 2.2 mm; Paw swelling (Mus musculus [24]): 2.32 mm
